Laboratory results as given in publication PMC8497620, “Structure and inhibition of Cryptococcus neoformans sterylglucosidase to develop antifungal agents” (Nature Communications, 2021).
Several values for one entry are separate records, joined by “and”; a condition that tells them apart may be missing. Equal values may be shown once. Entries after “also recorded” stand apart in the source; their conditions may differ. Read-outs that look alike come from different tables or passages of the source.

What was measured:
[1] = biological target: T1, Cerezyme (human glucosylceramidase) (Homo sapiens, UniProt P04062, R534H); assay: Effect on Cerezyme activity with res-glp substrate; type: biochemical; details: substrate resorufin 3β-D-glucopyranoside (100 µM)
T1 construct: purchased Genzyme Corporation, Cambridge, MA, USA
T1 sequence (P04062 40-536 R534H): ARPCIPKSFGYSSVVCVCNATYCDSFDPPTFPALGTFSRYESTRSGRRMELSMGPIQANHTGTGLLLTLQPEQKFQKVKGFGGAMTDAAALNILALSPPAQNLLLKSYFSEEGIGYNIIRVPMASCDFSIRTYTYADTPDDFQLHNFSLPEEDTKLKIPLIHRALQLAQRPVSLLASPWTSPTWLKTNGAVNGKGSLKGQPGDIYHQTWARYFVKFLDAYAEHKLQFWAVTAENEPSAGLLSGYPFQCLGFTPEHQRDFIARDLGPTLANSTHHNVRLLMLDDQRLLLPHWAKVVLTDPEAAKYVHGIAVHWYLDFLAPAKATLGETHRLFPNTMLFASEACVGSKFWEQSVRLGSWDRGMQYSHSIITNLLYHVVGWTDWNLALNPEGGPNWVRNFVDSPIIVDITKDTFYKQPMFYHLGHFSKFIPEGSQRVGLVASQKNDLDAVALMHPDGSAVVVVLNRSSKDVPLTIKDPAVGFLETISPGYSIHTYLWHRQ
Protocol: Resorufin-3β-D-glucopyranoside (res-glp, Sigma-Aldrich) enzyme kinetic assays were performed according to methods described by Urban et al.[16] with modifications. Reaction buffer contained 50 mM citric acid, 176 mM K2HPO4, pH 6, 0.01% Tween-20, and 10 mM sodium taurocholate. The reactions were carried out in black 96-well plates using 20 ng of enzyme with 100 μM res-glp substrate. In all, 10 μL/well of res-glp substrate was added to each well and the reaction was initiated by adding 20 μL enzyme (20 ng). After incubation at 37 °C for 30–40 min, the fluorescence was read at an excitation of 570 (±10) nm and an emission of 610 (±10) nm on a VersaMax™ Microplate Reader from Molecular Devices. A standard curve was prepared with serial dilutions of the free fluorophore, resorufin, in the same volume of assay buffer. All reactions were linear with respect to time and protein concentration and the pH, temperature, and dimethyl sulfoxide (DMSO) optimal tolerance was verified.
The Z′-factor was used for the assessment of the efficiency of the HTS assay for each individual plate. Values greater than 0.5 has been considered as an indicator of an excellent screening assay quality. […] The top three hits identified were re-tested in serial dilution against Sgl1 and cerezyme.

Cerezyme = biological target: T2, Cerezyme (Homo sapiens, UniProt P04062, R534H); assay: Cerezyme activity on mammalian C18-glucosylceramide in presence of hits (LC-MS); type: biochemical; details: for C18-ceramide: hits at 100 µM, 10 µg Cerezyme, 10 µg mammalian C18-glucosylceramide, pH 5.5, 37°C, 3 hours; for inhibition of human Cerezyme: physiological mammalian glucosylceramide substrate, 100 µM compound
T2 construct: purchased Genzyme Corporation, Cambridge, MA, USA
T2 sequence (P04062 40-536 R534H): T1 sequence (P04062 40-536 R534H)
Protocol: Supplementary figure 8. Cerezyme is not inhibited by its 1, 9 and 15. 10 µg of Cerezyme was added to 10 µg of mammalian C18-glucosylceramide in the presence of 100 µM of compound hits. The reactions were performed in 50 mM sodium acetate buffer pH5.5 and incubated at 37°C for 3 hours. The amount of C18-ceramide formed was quantified by LC-MS. There was no significant difference between the control (no drug) and samples with 100 µM of hits 1, 9 and 15 (p>0.05). Statistical analysis by one-way ANOVA, Dunnett's Multiple Comparison Test. Data represent the mean +/- SD of n=3 independent experiments.

C. neoformans H99 [2] = assay: Growth inhibition assay (YNB, 1% glucose, sealed plates, limited oxygen); type: cell-based, Cryptococcus neoformans; details: 37 °C, 72 h
Protocol: Five microliters containing 100 cells of C. neoformans H99 were inoculated in solid YNB media without amino acids plus 1% w/v glucose. Plates were then sealed with clear polyolefin sealing tape (ThermoFisher) and incubated at 37 °C for 72 h. Hits 1, 9, and 15 were added to the media at concentrations of 10 and 50 µM. H99, Δsgl1, and Δsgl1 + SGL1 strains were used as controls without compounds.

C. neoformans H99 [3] = assay: Mouse model of cryptococcosis, intraperitoneal treatment (CBA/J mice); type: in vivo, Cryptococcus neoformans; details: 10 mg/kg/day intraperitoneally; for CFU recovered from the brain: 14 days after infection; for lung CFU compared to vehicle-treated mice: days 3, 6, 9, 14; for Lung (CFU/mL): 10 mg/kg/day
Protocol: (§1) For animal studies, 4-week-old CBA/J (Envigo) female mice were used. Mouse experiments were performed in full compliance with a protocol approved by Stony Brook University (IACUC number 341588) and in compliance with the United States Animal Welfare Act (Public Law 98–198). The experiments were carried out in facilities accredited by the Association for Assessment and Accreditation of Laboratory Animal Care. Mice were divided into sets of 12 mice for each treatment or control group (4 animals per cage) kept in an animal room (temperature, 22–24 °C; relative humidity, 35–45%) with artificial 12–12 h dark/light cycle. For the experiment with intraperitoneal (i.p.) treatment, mice were infected intranasally with 10 µL of a suspension containing 1 × 10^6 C. neoformans H99 cells and subsequently treated through i.p. injection with 10 mg/kg/day of hit 1 in a final volume of 100 µL of vehicle containing 10% PEG 200 in PBS. The untreated animals received 100 µL of vehicle. For the experiment with intranasal (i.n.) treatment, mice were infected with 1 × 10^5 C. neoformans H99 cells and received i.n. treatment with hit 1 in a final volume of 10 µL. Another group received treatment with 10 mg/kg/day of fluconazole i.p. and a third group received the combined treatment of hit1 by i.n. and fluconazole by i.p. Animals receiving only vehicle i.n. were used as a control group. In both experiments, three mice of each group were euthanized at day 3, 6, 9, and 14 post infection for CFU recovery from lungs and CFU recovery from brain on day 14.

C. neoformans H99 [4] = type: in vivo, Cryptococcus neoformans; details: Hit 1 intranasally, fluconazole intraperitoneally; for brain dissemination / CFU recovered from the brain: 14 days; for Lung (CFU/mL): 10 mg/kg/day
Protocol: as §1

[5] = day 14 post infection, 10 mg/kg/day each

SMILES: CC(C)c1nc(N[C@@H]2C[C@@H](CO)N(C)C2)c2cnn(C)c2n1 [Hit 15]
- inhibition at 12.5427 µM ([1]; 12.5427 µM compound): 0%
- % Cerezyme Inhibition ([1]; 25.0854 µM compound): 1.771%
- inhibition at 25.0854 µM ([1]; 25.0854 µM compound): 1.74%
- % Cerezyme Inhibition ([1]; 50.1708 µM compound): 3.823%
- inhibition at 50.1708 µM ([1]; 50.1708 µM compound): 2.11%
- % Cerezyme Inhibition ([1]; 100.342 µM compound): 6.414%
- inhibition at 100.342 µM ([1]; 100.342 µM compound): 5.46%
- % Cerezyme Inhibition ([1]; 200.683 µM compound): 6.666%
- inhibition at 200.683 µM ([1]; 200.683 µM compound): 9.37%
- % Cerezyme Inhibition ([1]; 401.367 µM compound): 12.8892%
- inhibition at 401.367 µM ([1]; 401.367 µM compound): 13.2%
- % Cerezyme Inhibition ([1]; 800 µM compound): 12.1079%
- inhibition at 800 µM ([1]; 800 µM compound): 16.6%
- C18-ceramide (Cerezyme): 1251.6 pmol/mL and 855.67 pmol/mL and 1299.99 pmol/mL
- inhibition of human Cerezyme (Cerezyme): not inhibited
- growth of wild-type C. neoformans (C. neoformans H99 [2]; 10 µM): abrogated C. neoformans growth
- growth of wild-type C. neoformans (C. neoformans H99 [2]; 50 µM): inhibit growth similarly to C. neoformans Δsgl1; also recorded: lack of growth

SMILES: CN1C[C@@H](NC(=O)Cc2ccc3c(c2)NC(=O)CO3)C[C@@H]1CO [Hit 9]
- % Cerezyme Inhibition ([1]; 12.5427 µM compound): 0.6044%
- inhibition at 12.5427 µM ([1]; 12.5427 µM compound): 1.03%
- % Cerezyme Inhibition ([1]; 25.0854 µM compound): 2.143%
- inhibition at 25.0854 µM ([1]; 25.0854 µM compound): 2.64%
- % Cerezyme Inhibition ([1]; 50.1708 µM compound): 6.259%
- inhibition at 50.1708 µM ([1]; 50.1708 µM compound): 5.68%
- % Cerezyme Inhibition ([1]; 100.342 µM compound): 7.029%
- inhibition at 100.342 µM ([1]; 100.342 µM compound): 6.87%
- % Cerezyme Inhibition ([1]; 200.683 µM compound): 9.927%
- inhibition at 200.683 µM ([1]; 200.683 µM compound): 9.82%
- % Cerezyme Inhibition ([1]; 401.367 µM compound): 12.2165%
- inhibition at 401.367 µM ([1]; 401.367 µM compound): 14.1%
- inhibition at 800 µM ([1]; 800 µM compound): 16.7%
- C18-ceramide (Cerezyme): 1045.62 pmol/mL and 1138.29 pmol/mL and 953.48 pmol/mL
- inhibition of human Cerezyme (Cerezyme): not inhibited
- growth of wild-type C. neoformans (C. neoformans H99 [2]; 10 µM): abrogated C. neoformans growth
- growth of wild-type C. neoformans (C. neoformans H99 [2]; 50 µM): inhibit growth similarly to C. neoformans Δsgl1; also recorded: lack of growth

SMILES: COc1cccc(-c2ncc(CN3CCC(O)(CO)CC3)s2)c1 [Hit 1]
- % Cerezyme Inhibition ([1]; 12.5427 µM compound): 4.937% and 1.065%
- % Cerezyme Inhibition ([1]; 25.0854 µM compound): 6.583%
- inhibition at 25.0854 µM ([1]; 25.0854 µM compound): 7.34%
- % Cerezyme Inhibition ([1]; 50.1708 µM compound): 7.795%
- inhibition at 50.1708 µM ([1]; 50.1708 µM compound): 8.81%
- inhibition at 100.342 µM ([1]; 100.342 µM compound): 9.86%
- % Cerezyme Inhibition ([1]; 200.683 µM compound): 9.338%
- inhibition at 200.683 µM ([1]; 200.683 µM compound): 9.63%
- inhibition at 401.367 µM ([1]; 401.367 µM compound): 9.86%
- % Cerezyme Inhibition ([1]; 800 µM compound): 12.9786%
- inhibition at 800 µM ([1]; 800 µM compound): 10.5%
- CFU recovered from the brain (C. neoformans H99 [3]): no CFU were recovered from the brain
- CFU recovered from the brain (C. neoformans H99 [3]; listed as hit 1): No yeast cells were recovered from the brain
- lung CFU compared to vehicle-treated mice (C. neoformans H99 [3]): did not reduce lung colony-forming units
- lung CFU compared to vehicle-treated mice (C. neoformans H99 [3]; listed as hit 1): no significant difference among untreated and treated mice
- Lung (CFU/mL) (C. neoformans H99 [3]; day 3 post infection): 1200000 CFU/mL and 1520000 CFU/mL and 1480000 CFU/mL
- Lung (CFU/mL) (C. neoformans H99 [3]; day 9 post infection): 25000000 CFU/mL and 14200000 CFU/mL and 19700000 CFU/mL
- Brain (CFU/mL) (C. neoformans H99 [3]; day 14 post infection): 0 CFU/mL
- Lung (CFU/mL) (C. neoformans H99 [3]; day 14 post infection): 28600000 CFU/mL and 29600000 CFU/mL and 22000000 CFU/mL
- brain dissemination / CFU recovered from the brain (C. neoformans H99 [4]): no CFU recovered from the brain
- brain dissemination / CFU recovered from the brain (C. neoformans H99 [4]; listed as hit 1): no brain dissemination of yeast cells
- Lung (CFU/mL) (C. neoformans H99 [4]; day 9 post infection, 10 mg/kg/day each): 950000 CFU/mL and 1400000 CFU/mL and 780000 CFU/mL
- Brain (CFU/mL) (C. neoformans H99 [4]; [5]): 0 CFU/mL
- Lung (CFU/mL) (C. neoformans H99 [4]; [5]): 3880000 CFU/mL and 3700000 CFU/mL and 3100000 CFU/mL
- C18-ceramide (Cerezyme): 871.82 pmol/mL and 1017.11 pmol/mL and 1021.42 pmol/mL
- inhibition of human Cerezyme (Cerezyme): not inhibited
- growth of wild-type C. neoformans (C. neoformans H99 [2]; 50 µM): inhibit growth similarly to C. neoformans Δsgl1; also recorded: lack of growth
